Legend:
[1] = tested on: bedstraw; test: Test B pre/postemergence bedstraw; assay type: in vivo, Galium aparine
Method in brief: (§1)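 Herbicidal effect was estimated by eye on a ten-point control scale after plants spent twelve to sixteen days in a greenhouse following soil or foliar treatment. Foliar sprays targeted plants at one to four leaves; all doses were formulated in a non-phytotoxic solvent with surfactant.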

[2] = tested on: blackgrass; test: Test B pre/postemergence blackgrass; assay type: in vivo, Alopecurus myosuroides
Method in brief: as §1

[3] = tested on: surinam grass; test: Test B pre/postemergence surinam grass; assay type: in vivo, Brachiaria decumbens
Method in brief: as §1

[4] = tested on: smallflower flatsedge; test: Test B flood test smallflower flatsedge; assay type: in vivo, Cyperus difformis
Method in brief: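 Flood test on plants grown to the 2-leaf stage; treated plants kept in greenhouse twelve to sixteen days, then visually rated against controls on a 0 (no effect) to 10 (complete control) scale.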

[5] = Postemergence, Rate 125 g/ha, scale 0 to 10, 0 is no effect, 10 is complete control
[6] = Preemergence, Rate 500 g/ha, scale of 0 to 10 where 0 is no effect and 10 is complete control
[7] = Rate 250 g/ha, Postemergence, scale of 0 to 10 where 0 is no effect and 10 is complete control
[8] = Rate 500 g/ha, Postemergence, scale 0 to 10, 0 no effect, 10 complete control
[9] = Preemergence, Rate 250 g/ha, scale of 0 to 10 where 0 is no effect and 10 is complete control
[10] = Rate 62 g/ha, Postemergence, scale of 0 to 10 where 0 is no effect and 10 is complete control
[11] = Preemergence, Rate 62 g/ha, scale of 0 to 10 where 0 is no effect and 10 is complete control
[12] = Rate 62 g/ha, Postemergence, scale 0 to 10 (0 no effect, 10 complete control)
[13] = Rate 62 g/ha, headed Pre-emergence (flood test species), scale 0 to 10 (0 no effect, 10 complete control)
[14] = Rate 125 g/ha, Pre-emergence, flood test species, scale 0 to 10 where 0 is no effect and 10 is complete control
[15] = Rate 250 g/ha, Pre-emergence, flood-test species, scale 0 to 10, 0 is no effect, 10 is complete control
[16] = Preemergence, Rate 31 g/ha, visual rating, scale 0 to 10 (0 no effect, 10 complete control)
[17] = Rate 31 g/ha, Postemergence, scale 0 to 10
[18] = Rate 125 g/ha, Postemergence, scale 0 to 10
[19] = Rate 125 g/ha, Preemergence, scale of 0 to 10 where 0 is no effect and 10 is complete control

CC(C)N(C(=O)n1oc(=O)n(C2CCC2)c1=O)c1ccccc1 [Compound 348]
Plant response rating, Bedstraw [1, 5]: 2 | Bedstraw plant response rating [1, 6]: 9 | Plant response rating, Bedstraw [1, 7]: 4 | Plant response rating, Bedstraw [1, 8]: 7 | Plant response rating, Blackgrass [2, 5]: 3 | Plant response rating, Blackgrass ([2]; Preemergence, Rate 62 g/ha, scale 0 to 10 (0 no effect, 10 complete control)): 4 | Blackgrass plant response rating (0 to 10 scale) ([2]; Preemergence, Rate 125 g/ha): 6 | Blackgrass plant response rating [2, 9]: 9 | Blackgrass plant response rating [2, 6]: 9 | Blackgrass plant response rating [2, 10]: 2 | Plant response rating, Blackgrass [2, 7]: 6 | Plant response rating, Blackgrass [2, 8]: 7 | Plant response rating, B. signalgrass [3, 5]: 1 | B. signalgrass plant response rating (0 to 10 scale, 0 is no effect, 10 is complete control) ([3]; Preemergence, Rate 125 g/ha): 3 | B. signalgrass plant response rating [3, 9]: 5 | B. signalgrass plant response rating [3, 6]: 7 | B. signalgrass plant response rating [3, 10]: 0 | Plant response rating, B. signalgrass [3, 7]: 4 | Plant response rating, B. signalgrass [3, 8]: 7 | Plant response rating, S. Flatsedge ([4]; Postemergence (flood test), Rate 125 g/ha, scale 0 to 10, 0 is no effect, 10 is complete control): 6 | S. Flatsedge plant response rating ([4]; Rate 62 g/ha, Postemergence (flood test species), scale of 0 to 10 where 0 is no effect and 10 is complete control): 4 | Plant response rating, S. Flatsedge ([4]; Rate 500 g/ha, listed under Postemergence (flood test species), scale 0 to 10, 0 no effect, 10 complete control): 7

CC(C)N(C(=O)n1oc(=O)n(C2CC3CCC2C3)c1=O)c1ccc(F)cc1F (stereo not drawn) [Compound 326]
Plant response rating, Bedstraw [1, 5]: 5 | Plant response rating, Bedstraw [1, 7]: 7 | Plant response rating, Blackgrass [2, 5]: 0 | Blackgrass plant response rating [2, 11]: 0 | Blackgrass plant response rating (0 to 10 scale) ([2]; Preemergence, Rate 125 g/ha): 5 | Blackgrass plant response rating [2, 9]: 7 | Blackgrass plant response rating [2, 6]: 8 | Blackgrass plant response rating [2, 12]: 0 | Plant response rating, Blackgrass [2, 7]: 0 | Plant response rating, Blackgrass [2, 8]: 1 | Plant response rating, B. signalgrass [3, 5]: 0 | B. signalgrass plant response rating [3, 11]: 0 | B. signalgrass plant response rating (0 to 10 scale, 0 is no effect, 10 is complete control) ([3]; Preemergence, Rate 125 g/ha): 0 | B. signalgrass plant response rating [3, 9]: 3 | B. signalgrass plant response rating [3, 6]: 7 | B. signalgrass plant response rating [3, 12]: 0 | Plant response rating, B. signalgrass [3, 7]: 0 | Plant response rating, B. signalgrass [3, 8]: 0 | S. Flatsedge plant response rating [4, 13]: 0 | S. Flatsedge plant response rating [4, 14]: 0 | S. Flatsedge plant response rating [4, 15]: 0 | S. Flatsedge plant response rating ([4]; Rate 500 g/ha, Pre-emergence, flood test species, scale 0 to 10 (0 no effect, 10 complete control)): 0

CCCCn1c(=O)on(C(=O)N(c2ccc(F)cc2)C(C)C)c1=O [Compound 221]
Bedstraw plant response rating [1, 16]: 0 | Bedstraw plant response rating [1, 11]: 0 | Bedstraw plant response rating [1, 9]: 4 | Bedstraw plant response rating [1, 17]: 2 | Bedstraw plant response rating [1, 10]: 2 | Bedstraw plant response rating [1, 18]: 7 | Bedstraw plant response rating [1, 19]: 4 | Plant response rating (0 to 10; 0 is no effect, 10 is complete control), Bedstraw ([1]; Rate 250 g/ha, Postemergence): 9 | Blackgrass plant response rating [2, 16]: 5 | Blackgrass plant response rating [2, 11]: 5 | Blackgrass plant response rating [2, 9]: 7 | Blackgrass plant response rating [2, 17]: 2 | Blackgrass plant response rating [2, 10]: 2 | Blackgrass plant response rating [2, 18]: 9 | Blackgrass plant response rating [2, 19]: 7 | Plant response rating (0 to 10; 0 is no effect, 10 is complete control), Blackgrass ([2]; Rate 250 g/ha, Postemergence): 9 | B. signalgrass plant response rating [3, 16]: 2 | B. signalgrass plant response rating [3, 11]: 5 | B. signalgrass plant response rating ([3]; Preemergence, Rate 250 g/ha, scale 0 to 10, 0 is no effect, 10 is complete control): 6 | B. signalgrass plant response rating [3, 17]: 0 | B. signalgrass plant response rating [3, 10]: 0 | B. signalgrass plant response rating ([3]; Rate 125 g/ha, Postemergence, scale 0 (no effect) to 10 (complete control)): 3 | B. signalgrass plant response rating [3, 19]: 5 | Plant response rating (0 to 10; 0 is no effect, 10 is complete control), B. signalgrass ([3]; Rate 250 g/ha, Postemergence): 8 | S. Flatsedge plant response rating ([4]; Rate 31 g/ha, Pre-emergence section (flood test species), scale 0 to 10): 0 | S. Flatsedge plant response rating [4, 13]: 0 | S. Flatsedge plant response rating [4, 14]: 0 | S. Flatsedge plant response rating [4, 15]: 0
